Measured values taken from patent US4582827A, “Pesticidal diphenylaziridines” (priority 1983, dated 1986).

System: tobacco hornworm (Manduca sexta) larvae
Test: Tobacco hornworm growth and developmental responses to feeding on diets containing the compounds
Format: in vivo
Settings: for Total No. of Adults: all tests began with 15 larvae; for mean number of eggs: 4 day old females
Description: The compounds produced and described in Example 1 were then tested for pesticidal activity against the tobacco hornworm (Manduca sexta). The screening procedure for these tests began with the larval stage and continued through the pupal and adult stages and finally evaluated egg production. The studies thus permitted the evaluation of the effects of the compounds over several subsequent developmental stages in the total life cycle of the insect, giving estimates of acute toxicity (insecticidalor larvicidal activity) as well as prolonged or delayed effects on development (growth regulation) and reproduction (chemosterilization). The latter are of special importance in conjunction with the integrated pest management approach to insect control.
The test compounds were incorporated into the artificial diet of tobacco hornworm larvae and their subsequent growth and developmental responses were monitored using the following parameters: larval mortality including determination of LD50 values, rate of larval development and weight gain, percent pupation, pupal weight and degree of deformities, percent adult emergence and measures of reproductive capacity such as the number of developed ooctyes, fecundity and fertility. The protocol for the screening tests has been developed over a number of years by Dahlman et al., Comp. Biochem. Physiol. 51A, 33, (1975); Comp. Biochem. Physiol., 52A, 105 (1975); Ent. Exp. et Appl., 22, 123 (1977); Palumbo and D. L. Dahlman, J. Econ. Entomol. 71, 674 (1978); D. L. Dahlman, Ent. Exp. et Appl., 24, 327 (1978).
Each treatment used 15 newly ecdysed fifth-instar larvae. Death of larvae within a few hours to several days of initial exposure was considered to be acute toxicity. However, the compounds may reduce the maximum size attained by larvae and/or may retard growth so that larvae require additional time to attain their maximum size. Developmental parameters subsequent to the feeding stage also may be affected. […] Mortality may occur in the pupal stage or emerging adults may have wrinkled wings or other deformities. The number of eggs produced by treated females may be reduced and/or unfertile. Although acute toxicity is desirable in the control of any insect, the delayed effects which result in poor survival and reduced reproductive capacity are significant factors in the long-range program of pest management systems.
Continuous cultures of M. sexta are maintained according to the procedures of Yamamoto, J. Econ. Entomol., 62, p. 1427 (1969). Ingredients of the diet formulation include sugar, casein, wheat germ oil, cholesterol, salt mixture, yeast, vitamins, antioxidants and fungal inhibitors, such as ascorbic acid, sorbic acid, formaldehyde and methyl-p-benzoate. All are incorporated into a liquid agar base which, when poured into holding pans, solidifies to form an adequate substrate upon which the insect larvae feed. Nearly any test material can be uniformly incorporated into such a diet. Thus, exposure to experimental compounds can be evaluated during all or any part of the larval stage. In addition, chronic or long-term effects in subsequent life stages can also be monitored.
The results from these studies, in which the 1,2-diphenylaziridines of Example 1 were incorporated singly into the diet of M. sexta at a concentration of 5 mM are presented in the following Table I.

SMILES | % Adult Emergence (5 mM in diet) [%] | % Malformed Adults (5 mM in diet) [%] | % Pupation (5 mM in diet) [%] | Days to Max Wt (5 mM in diet) | Max Larval Wt (5 mM in diet) | Mean No. of Eggs (5 mM in diet) | No. of female Adults (5 mM in diet) | Total No. of Adults (5 mM in diet) | effects on tobacco hornworm development (summary of Tables I and II) | feeding time required to attain reduced maximum weight (5 mM in diet) | larval mortality (5 mM in diet) | percent adult emergence (5 mM in diet) | percent pupation (5 mM in diet) | reduction in the maximum weight of hornworm larvae (5 mM in diet) | wrinkled or crumpled wings of moths (5 mM in diet) | mean number of eggs (5 mM in diet) | pupal mortality (5 mM in diet) | pupal mortality (summary of Tables I and II)
c1ccc(C2CN2c2ccccc2)cc1 (stereo not shown) [Compound 7, 1,2-diphenylaziridine] | 80 | 0 | 100 | 6.7 ± .2 days | 9.29 ± .17 g | 79 ± 19 | 10 | 12 | had no effect | – | – | – | – | – | – | – | – | –
Brc1ccc(N2CC2c2ccccc2)cc1 (stereo not shown) [Compound 6] | 47 | 27 | 53 | 9.2 ± .5 days | 4.83 ± .42 g | 7 ± 5 | 5 | 7 | reduction in maximum larval weight, percent pupation, and mean number of eggs, and an increase in malformed adults | extended the feeding time | significant larval mortality | significantly lower than controls | a reduction in percent pupation | 30-50% | observed in significant numbers of moths | significantly reduced the mean number of eggs | – | –
Clc1cccc(N2CC2c2ccccc2Cl)c1 (stereo not shown) [Compound 12] | 47 | 57 | 60 | 7.6 ± .8 days | 5.96 ± .40 g | 8 ± 11 | 2 | 7 | reduction in maximum larval weight, percent pupation, and mean number of eggs, and an increase in malformed adults | extended the feeding time | significant larval mortality | significantly lower than controls | a reduction in percent pupation | 30-50% | observed in significant numbers of moths | significantly reduced the mean number of eggs | – | –
Clc1ccccc1C1CN1c1ccccc1 (stereo not shown) [Compound 5] | 40 | 17 | 40 | 7.3 ± 1.4 days | 5.42 ± .42 g | 14 ± 17 | 3 | 6 | reduction in maximum larval weight, percent pupation, and mean number of eggs, and an increase in malformed adults | extended the feeding time | significant larval mortality | significantly lower than controls | a reduction in percent pupation | 30-50% | – | significantly reduced the mean number of eggs | – | –
O=[N+]([O-])c1cccc(C2CN2c2ccccc2)c1 (stereo not shown) [Compound 4] | 100 | 7 | 100 | 5.1 ± .1 days | 9.01 ± .17 g | 67 ± 16 | 9 | 15 | had no effect | – | – | – | – | – | – | – | – | –
Clc1cccc(C2CN2c2ccc(Br)cc2)c1 (stereo not shown) [Compound 8] | 53 | 50 | 60 | 7.8 ± .6 days | 4.84 ± .19 g | 1 ± 0 | 4 | 8 | reduction in maximum larval weight, percent pupation, and mean number of eggs, and an increase in malformed adults | extended the feeding time | significant larval mortality | significantly lower than controls | a reduction in percent pupation | 30-50% | observed in significant numbers of moths | significantly reduced the mean number of eggs | – | –
Clc1ccc(C2CN2c2ccc(Br)cc2)cc1 (stereo not shown) [Compound 9] | 86 | 15 | 93 | 5.0 ± .0 days | 6.46 ± .23 g | 74 ± 14 | 7 | 13 | – | – | – | – | – | 30-50% | – | – | – | –
O=[N+]([O-])c1cccc(N2CC2c2ccccc2[N+](=O)[O-])c1 (stereo not shown) [Compound 3] | 80 | 8 | 100 | 5.2 ± .1 days | 9.21 ± .24 g | 97 ± 14 | 9 | 12 | had no effect | – | – | – | – | – | – | – | – | –
CCc1ccc(N2CC2c2ccccc2Cl)cc1 (stereo not shown) [Compound 16] | 80 | 20 | 87 | 5.5 ± .2 days | 7.48 ± .31 g | 44 | 4 | 12 | – | – | – | – | – | – | – | – | – | –
O=[N+]([O-])c1ccccc1C1CN1c1ccc(Cl)c(Cl)c1 (stereo not shown) [Compound 2] | 47 | 71 | 93 | 6.2 ± .1 days | 8.58 ± .31 g | 83 ± 29 | 5 | 7 | – | – | – | – | – | – | observed in significant numbers of moths | – | significant pupal mortality | caused pupal mortality
